Here are results for two compounds from US12532888B2, “Methods and uses of a mixture comprising alpha-cypermethrin and dinotefuran for combating or controlling mosquitoes” (priority 2020, dated 2026).

In this assay the test system is yellow fever mosquitoes (Aedes aegypti). Briefly: whole plant or invertebrate. The following applies: for Colby Expected: 3 days after exposure. On the procedure: Glass vials (20 mL scintillation) were treated with 445 μL of varying concentrations of α-cypermethrin dissolved in acetone, respectively dinotefuran or mixtures of α-cypermethrin and dinotefuran in the indicated ratios. Vials were turned on their sides and placed on an automated roller table. The vials were rolled (6 rpm) uncapped to allow an even coating of the treatment.
After rolling, vials were allowed to completely dry for at least an hour. Each treatment was replicated five times. Prior to exposure, yellow fever mosquitoes (Aedes aegypti) were incapacitated using a chill table. Approximately six mosquitoes were placed into each vial and were exposed to treatments at room temperature for exactly one hour. A small amount of CO2 was used to incapacitate the mosquitoes to facilitate removal from treatment. Insects were then transferred to 16 oz plastic holding containers. A cotton wick moistened with 10% sugar water was provided in each container. Holding containers were moved into an incubator with environmental conditions of 27° C. and 80% relative humidity. Wicks were rehydrated daily and mortality was assessed at 3 days after exposure (DAE).
Ataxia+mortality data were used to determine whether there was a synergistic effect in the combined use of dinotefuran and α-cypermethrin.
Abbott's correction for control mortality and the Colby method for testing synergy were used to analyze combination data. […] Colby's expected mortality per combination observation=% mortality (A)+% mortality (B)−(% mortality (A)×% mortality (B))/100. Synergy ratio=% observed mortality/% Colby expected mortality.
Additive interactions have synergy ratios equal to 1, antagonistic interactions have synergy ratios of less than 1, and synergistic interactions have synergy ratios of greater than 1.

A word on the mortality: it is the share of the test organisms that died. `CC1(C)C(C=C(Cl)Cl)C1C(=O)OC(C#N)c1cccc(Oc2ccccc2)c1` (racemic) [Alpha-cypermethrin, racemate comprising (R)-α-cyano-3-phenoxybenzyl (1S, 3S)-3-(2,2-dichlorovinyl)-2,2-dimethylcyclopropanecarboxylate; (S)-α-cyano-3-phenoxybenzyl (1R, 3R)-3-(2,2-dichlorovinyl)-2,2-dimethylcyclopropanecarboxylate]: where the note is “Aedes aegypti, 72 h”, the mortality at 0.00732 mg/m2 worked out at 13.9%. In addition, the “Colby Expected” value (Table 1, expected mortality of the combination 0.00732 + 0.0732 mg/m^2 by Colby's formula) turned out to be 13.9% and the “Colby Expected” value (Table 2, expected mortality of the combination 0.00732 + 7.32 mg/m^2 by Colby's formula) worked out at 13.9%.
As to `CNC(=N[N+](=O)[O-])NCC1CCOC1` (racemic) [Dinotefuran, (RS)-1-methyl-2-nitro-3-(tetrahydro-3-furylmethyl) guanidine], under “Aedes aegypti, 72 h”, the mortality at 0.0732 mg/m2 worked out at 0% and the mortality at 7.32 mg/m2 amounted to 0%.
